In patent US7989464B2, “mGluR1 antagonists as therapeutic agents” (Schering Corporation, priority 2004, dated 2011):

Target: T1, hmGluR1 receptor (Homo sapiens, UniProt Q13255)
T1 construct: expressed in transfected cells
Test: IC50 determination: intracellular calcium mobilization (FLIPR) upon Quisqualate stimulation in CHO cells stably expressing hmGluR1
Format: cell-based
Conditions: against Quisqualate 1 μM (EC80), FLIPR calcium mobilization, read-out: IC50 Class
Summary of the method: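 CHO cells stably expressing hmGluR1 were kept overnight in DMEM high glucose with GPT and 1 mM pyruvate, then loaded 2 h with Calcium 3 dye.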

T1 sequence (Q13255 19-1194): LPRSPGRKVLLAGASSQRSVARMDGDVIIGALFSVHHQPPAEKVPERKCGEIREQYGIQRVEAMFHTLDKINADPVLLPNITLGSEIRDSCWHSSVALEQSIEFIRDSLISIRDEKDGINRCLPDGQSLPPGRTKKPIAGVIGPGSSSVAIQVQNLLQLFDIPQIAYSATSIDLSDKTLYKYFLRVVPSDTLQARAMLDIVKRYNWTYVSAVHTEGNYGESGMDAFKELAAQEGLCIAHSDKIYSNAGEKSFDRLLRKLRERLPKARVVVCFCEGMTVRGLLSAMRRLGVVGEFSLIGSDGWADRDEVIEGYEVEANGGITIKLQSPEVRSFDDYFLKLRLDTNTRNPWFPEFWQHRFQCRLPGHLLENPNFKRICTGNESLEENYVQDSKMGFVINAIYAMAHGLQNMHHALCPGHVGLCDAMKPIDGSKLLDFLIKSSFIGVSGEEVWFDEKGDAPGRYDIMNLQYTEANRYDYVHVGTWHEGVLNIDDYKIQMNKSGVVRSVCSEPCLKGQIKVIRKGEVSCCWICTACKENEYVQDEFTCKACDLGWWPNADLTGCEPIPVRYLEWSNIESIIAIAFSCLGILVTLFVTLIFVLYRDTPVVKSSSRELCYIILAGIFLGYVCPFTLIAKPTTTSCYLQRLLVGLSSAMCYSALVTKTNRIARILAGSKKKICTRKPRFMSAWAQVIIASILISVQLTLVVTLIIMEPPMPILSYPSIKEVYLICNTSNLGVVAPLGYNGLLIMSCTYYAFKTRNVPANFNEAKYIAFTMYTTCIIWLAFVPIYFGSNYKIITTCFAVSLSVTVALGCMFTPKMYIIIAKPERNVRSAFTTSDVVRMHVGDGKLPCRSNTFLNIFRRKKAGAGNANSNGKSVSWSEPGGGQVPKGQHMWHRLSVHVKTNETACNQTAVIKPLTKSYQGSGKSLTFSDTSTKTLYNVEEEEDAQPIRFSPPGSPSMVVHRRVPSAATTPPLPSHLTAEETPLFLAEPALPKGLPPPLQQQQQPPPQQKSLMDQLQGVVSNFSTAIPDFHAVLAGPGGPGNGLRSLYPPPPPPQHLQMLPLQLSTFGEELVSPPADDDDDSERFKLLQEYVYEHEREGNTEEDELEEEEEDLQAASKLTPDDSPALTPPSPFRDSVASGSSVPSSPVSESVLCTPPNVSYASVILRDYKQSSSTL

IC50 [µM]	SMILES
> 1	COc1ccc(-n2cnc3c(sc4nc(Cl)cc(OC)c43)c2=O)cc1 [57B]
< 0.05	COc1ccc(-n2cnc3c(sc4nc(Cl)cc(N(C)C)c43)c2=O)cc1 [57C]
0.15 to 1	COc1ccc(-n2cnc3c(sc4nc(Cl)cc(NC5CC5)c43)c2=O)cc1 [57D]
0.15 to 1	O=c1c2sc3nccc(Cl)c3c2ncn1-c1ccc(Cl)cc1 [57E]
< 0.05	COc1ccc(-n2cnc3c(sc4nc(N)cc(N(C)C)c43)c2=O)cc1 [59F]
< 0.05	COc1ccc(-n2cnc3c(sc4nc(N)cc(NC5CC5)c43)c2=O)cc1 [59G]
< 0.05	COc1ccc(-n2cnc3c(sc4nc(N)cc(N)c43)c2=O)cc1 [59H]
0.05 to 0.15	COc1ccc(-n2cnc3c(sc4nc(Cl)cc(N)c43)c2=O)cc1 [59I]
< 0.05	C=CCOc1ccnc2sc3c(=O)n(-c4ccc(Cl)cc4)cnc3c12 [66F]
< 0.05	C#CCOc1ccnc2sc3c(=O)n(-c4ccc(Cl)cc4)cnc3c12 [66G]
> 1	O=c1c2sc3nccc(OCCO)c3c2ncn1-c1ccc(Cl)cc1 [66H]
< 0.05	C#CCOc1ccnc2sc3c(=O)n(-c4ccc(Br)cc4)cnc3c12 [66I]
< 0.05	C=CCOc1ccnc2sc3c(=O)n(-c4ccc(Br)cc4)cnc3c12 [66J]
0.15 to 1	C=CCCOc1ccnc2sc3c(=O)n(-c4ccc(Br)cc4)cnc3c12 [66K]
0.15 to 1	O=c1c2sc3nccc(OCC4CC4)c3c2ncn1-c1ccc(Br)cc1 [66L]
0.05 to 0.15	C#CCOc1ncnc2sc3c(=O)n(-c4ccc(C)cc4)cnc3c12 [66M]
> 1	CNc1nc(N)c2c(n1)sc1c(=O)n(-c3ccc(C)cc3)cnc12 [71B]
> 1	Cc1ccc(-n2cnc3c(sc4nc(N5CCCC5)nc(N)c43)c2=O)cc1 [71C]
0.15 to 1	Cc1ccc(-n2cnc3c(sc4nc(C5CC5)nc(N)c43)c2=O)cc1 [71D]
> 1	Cc1ccc(-n2cnc3c(sc4nc(C(F)(F)F)nc(N)c43)c2=O)cc1 [71E]
< 0.05	Cc1ccc(-n2cnc3c(sc4nc(S)nc(N)c43)c2=O)cc1 [71F]
0.15 to 1	CC(=O)NN(C)c1ccnc2sc3c(=O)n(-c4ccc(Cl)cc4)cnc3c12 [73H]
0.15 to 1	CC(=O)NN(C)c1ccnc2sc3c(=O)n(-c4ccc(C)cc4)cnc3c12 [73I]

IC50 [µM]	SMILES
0.15 to 1	Cc1ccc(-n2cnc3c(sc4nccc(N(C)NS(C)(=O)=O)c43)c2=O)cc1 [73J]
< 0.05	CN(C)c1ncnc2sc3c(=O)n(-c4ccc5occc5c4)cnc3c12 [95AP]
< 0.05	CN(C)c1ncnc2sc3c(=O)n(-c4ccc(Br)cc4F)cnc3c12 [95AR]
< 0.05	O=c1c2sc3ncnc(NC4CC4)c3c2ncn1-c1ccc(Br)cc1 [95AU]
< 0.05	O=c1c2sc3ncnc(NC4CC4)c3c2ncn1-c1ccc2occc2c1 [95AV]
< 0.05	COc1ccc(-n2cnc3c(sc4ncnc(NC5CC5)c43)c2=O)c(C)c1 [95AW]
0.05 to 0.15	O=c1c2sc3ncnc(NC4CC4)c3c2ncn1-c1ccc(Br)cc1F [95AX]
< 0.05	O=c1c2sc3ncnc(NC4CC4)c3c2ncn1-c1ccc2ncsc2c1 [95AZ]
< 0.05	O=c1c2sc3ncnc(NC4CC4)c3c2ncn1-c1ccc2scnc2c1 [95BA]
< 0.05	CNc1ncnc2sc3c(=O)n(-c4ccc(Br)cc4)cnc3c12 [95BD]
0.05 to 0.15	CCNc1ncnc2sc3c(=O)n(-c4ccc(OC)cc4F)cnc3c12 [95BE]
< 0.05	CNc1ncnc2sc3c(=O)n(-c4ccc(OC)c(F)c4)cnc3c12 [95BF]
< 0.05	CNc1ncnc2sc3c(=O)n(-c4ccc5scnc5c4)cnc3c12 [95BG]
< 0.05	CNc1ncnc2sc3c(=O)n(-c4ccc(OC)cc4C)cnc3c12 [95BH]
< 0.05	CNc1ncnc2sc3c(=O)n(-c4ccc(OC)cc4F)cnc3c12 [95BI]
< 0.05	CCNc1ncnc2sc3c(=O)n(-c4ccc5scnc5c4)cnc3c12 [95BJ]
< 0.05	CCNc1ncnc2sc3c(=O)n(-c4ccc5ncsc5c4)cnc3c12 [95BK]
< 0.05	CCNc1ncnc2sc3c(=O)n(-c4ccc(OC)c(F)c4)cnc3c12 [95BL]
< 0.05	C=CCNc1ncnc2sc3c(=O)n(-c4ccc5scnc5c4)cnc3c12 [95BM]
0.05 to 0.15	C=CCNc1ncnc2sc3c(=O)n(-c4ccc(OC)c(F)c4)cnc3c12 [95BN]
< 0.05	C=CCNc1ncnc2sc3c(=O)n(-c4ccc(Br)cc4)cnc3c12 [95BO]
< 0.05	C=CCNc1ncnc2sc3c(=O)n(-c4ccc(Cl)cc4)cnc3c12 [95BP]

Same assay, conditions: against Quisqualate 1 μM (EC80), FLIPR calcium mobilization, read-out: mGluR1 IC50

IC50 [µM]	SMILES
0.0016	CN(C)c1ncnc2sc3c(=O)n(-c4ccc5occc5c4)cnc3c12 [95AP]
0.00137	O=c1c2sc3ncnc(NC4CC4)c3c2ncn1-c1ccc(Br)cc1 [95AU]
0.0283	CNc1ncnc2sc3c(=O)n(-c4ccc(OC)cc4F)cnc3c12 [95BI]
0.00154	C=CCNc1ncnc2sc3c(=O)n(-c4ccc(Br)cc4)cnc3c12 [95BO]
0.00131	C=CCNc1ncnc2sc3c(=O)n(-c4ccc(Cl)cc4)cnc3c12 [95BP]

Same assay, conditions: against Quisqualate 1 μM (EC80), class symbols, read-out: mGIuR 1 IC50

IC50 [µM]	SMILES
< 0.05	CN(C)c1cncc2sc3c(=O)n(-c4ccc(Cl)cc4)cnc3c12 [37E]
0.05 to 0.15	COc1ccc(-n2cnc3c(sc4cncc(N(C)C)c43)c2=O)cc1 [37F]
0.15 to 1	COc1ccc(-n2cnc3c(sc4cncc(N(C)C)c43)c2=O)cc1F [37G]
> 1	CN(C)c1cncc2sc3c(=O)n(-c4ccc(O)cc4)cnc3c12 [37H]
0.15 to 1	CN(C)c1c(-c2cccc(C#N)c2)cnc2sc3c(=O)n(C4CCCCC4)cnc3c12 [47A]
> 1	CN(C)c1c(-c2ccc(F)cc2)cnc2sc3c(=O)n(C4CCCCC4)cnc3c12 [47B]
> 1	Cc1ccc(-n2cnc3c(sc4nc(N5CCN(C)CC5)cc(N(C)C)c43)c2=O)cc1 [59A]
> 1	Cc1ccc(-n2cnc3c(sc4nc(N5CCNCC5)cc(N(C)C)c43)c2=O)cc1 [59B]
> 1	Cc1ccc(-n2cnc3c(sc4nc(N5CCOCC5)cc(N(C)C)c43)c2=O)cc1 [59C]
< 0.05	CN(C)c1ccnc2sc3c(=O)n(N4CCCCC4)cnc3c12 [60A]
< 0.05	CN(C)c1ccnc2sc3c(=O)n(Nc4ccccc4)cnc3c12 [60B]
< 0.05	Cc1ccc(Nn2cnc3c(sc4nccc(N(C)C)c43)c2=O)cc1 [60C]
< 0.05	CN(C)c1ccnc2sc3c(=O)n(N4CCCCCC4)cnc3c12 [60D]
< 0.05	CN(C)c1ccnc2sc3c(=O)n(N4CC5CCCC5C4)cnc3c12 (centres unmarked) [60E]
0.05 to 0.15	CC1CCCC(C)N1n1cnc2c(sc3nccc(N(C)C)c32)c1=O (centres unmarked) [60F]
< 0.05	CN(C)c1ccnc2sc3c(=O)n(NC4CCCCC4)cnc3c12 [60G]
> 1	CN(C)c1ccnc2sc3c(=O)n(N)cnc3c12 [60H]
0.05 to 0.15	CN(C)c1ccnc2sc3c(=O)n(N4CCCC4)cnc3c12 [60I]
> 1	CN(C)c1ccnc2sc3c(=O)n(N(c4ccccc4)c4ccccc4)cnc3c12 [60J]
0.15 to 1	CN(C)c1cncc2sc3c(=O)n(N4CCCCC4)cnc3c12 [60L]
> 1	CN1CCN(c2ccnc3sc4c(=O)n(C5CCCCC5)cnc4c23)CC1 [61A]
> 1	O=c1c2sc3nccc(N4CCN(CC5CC5)CC4)c3c2ncn1C1CCCCC1 [61B]
> 1	CC(=O)Nn1c(C)nc2c(sc3nccc(N(C)C)c32)c1=O [65A]
> 1	CN(C)c1ccnc2sc3c(=O)n(NC(=O)C(F)(F)F)c(C(F)(F)F)nc3c12 [65B]
> 1	CN(C)c1ccnc2sc3c(=O)n(NC(=O)C4CC4)c(C4CC4)nc3c12 [65C]
> 1	CN(C)c1ccnc2sc3c(=O)n(NC(=O)C4CCC4)c(C4CCC4)nc3c12 [65D]
> 1	CN(C)c1ccnc2sc3c(=O)n(N)c(-c4ccccc4)nc3c12 [65E]

IC50 [µM]	SMILES
< 0.05	C#CCOc1ccnc2sc3c(=O)n(-c4ccc(C)cc4)cnc3c12 [66A]
> 1	CC#CCOc1ccnc2sc3c(=O)n(-c4ccc(C)cc4)cnc3c12 [66B]
> 1	Cc1ccc(-n2cnc3c(sc4nccc(OC5CCCC5)c43)c2=O)cc1 [66C]
< 0.05	C=CCOc1ccnc2sc3c(=O)n(-c4ccc(C)cc4)cnc3c12 [66D]
> 1	Cc1ccc(-n2cnc3c(sc4nccc(OCCO)c43)c2=O)cc1 [66E]
< 0.05	Cc1ccc(-n2cnc3c(sc4nc(N)nc(N)c43)c2=O)cc1 [71A]
< 0.05	Nc1ccnc2sc3c(=O)n(C4CCCCC4)cnc3c12 [72A]
< 0.05	C=CCNc1ccnc2sc3c(=O)n(C4CCCCC4)cnc3c12 [72B]
< 0.05	COc1ccc(-n2cnc3c(sc4nccc(N)c43)c2=O)cc1 [72C]
> 1	O=c1c2sc3nccc(NC4Cc5ccccc5C4)c3c2ncn1C1CCCCC1 [72D]
> 1	O=c1c2sc3nccc(NCc4ccccc4)c3c2ncn1C1CCCCC1 [72E]
> 1	O=c1c2sc3nccc(NCCc4ccccc4)c3c2ncn1C1CCCCC1 [72F]
< 0.05	C#CCNc1ccnc2sc3c(=O)n(C4CCCCC4)cnc3c12 [72G]
< 0.05	Cc1ccc(-n2cnc3c(sc4nccc(N)c43)c2=O)cc1 [72H]
< 0.05	C=CCNc1ccnc2sc3c(=O)n(-c4ccc(C)cc4)cnc3c12 [72I]
> 1	CCC(=O)Nc1ccnc2sc3c(=O)n(C4CCCCC4)cnc3c12 [73A]
> 1	CC(=O)Nc1ccnc2sc3c(=O)n(C4CCCCC4)cnc3c12 [73B]
> 1	O=C(Nc1ccnc2sc3c(=O)n(C4CCCCC4)cnc3c12)c1ccccc1 [73C]
> 1	O=C(Nc1ccnc2sc3c(=O)n(C4CCCCC4)cnc3c12)C1CCC1 [73D]
> 1	O=C(Nc1ccnc2sc3c(=O)n(C4CCCCC4)cnc3c12)c1ccco1 [73E]
> 1	COc1ccc(C(=O)Nc2ccnc3sc4c(=O)n(C5CCCCC5)cnc4c23)cc1 [73F]
> 1	O=C(Nc1ccnc2sc3c(=O)n(C4CCCCC4)cnc3c12)c1ccc(Cl)cc1 [73G]
0.15 to 1	Cc1ccc(-n2cnc3c(sc4nc(C(C)C)cc(N(C)C)c43)c2=O)cc1 [87A]
0.05 to 0.15	CCc1cc(N(C)C)c2c(n1)sc1c(=O)n(-c3ccc(C)cc3)cnc12 [87B]
0.15 to 1	CCNc1ncnc2sc3c(=O)n(-c4ccc(C)nc4)cnc3c12 [95AB]
< 0.05	CCNc1ncnc2sc3c(=O)n(-c4ccc5c(c4)CCO5)cnc3c12 [95AC]
< 0.05	CCNc1ncnc2sc3c(=O)n(-c4ccc(SC)cc4)cnc3c12 [95AD]
